Measured values from ChEMBL document CHEMBL1122289.

What was measured:
[1] = molecular target: Estrogen receptor (Mus musculus) (UniProt O08537+P19785); test: Relative binding affinity for estrogen receptor; format: protein assay
[2] = molecular target: T1, Progesterone receptor (Oryctolagus cuniculus) (UniProt P06186); test: Relative binding affinity for progesterone receptor
T1 sequence (whole entry): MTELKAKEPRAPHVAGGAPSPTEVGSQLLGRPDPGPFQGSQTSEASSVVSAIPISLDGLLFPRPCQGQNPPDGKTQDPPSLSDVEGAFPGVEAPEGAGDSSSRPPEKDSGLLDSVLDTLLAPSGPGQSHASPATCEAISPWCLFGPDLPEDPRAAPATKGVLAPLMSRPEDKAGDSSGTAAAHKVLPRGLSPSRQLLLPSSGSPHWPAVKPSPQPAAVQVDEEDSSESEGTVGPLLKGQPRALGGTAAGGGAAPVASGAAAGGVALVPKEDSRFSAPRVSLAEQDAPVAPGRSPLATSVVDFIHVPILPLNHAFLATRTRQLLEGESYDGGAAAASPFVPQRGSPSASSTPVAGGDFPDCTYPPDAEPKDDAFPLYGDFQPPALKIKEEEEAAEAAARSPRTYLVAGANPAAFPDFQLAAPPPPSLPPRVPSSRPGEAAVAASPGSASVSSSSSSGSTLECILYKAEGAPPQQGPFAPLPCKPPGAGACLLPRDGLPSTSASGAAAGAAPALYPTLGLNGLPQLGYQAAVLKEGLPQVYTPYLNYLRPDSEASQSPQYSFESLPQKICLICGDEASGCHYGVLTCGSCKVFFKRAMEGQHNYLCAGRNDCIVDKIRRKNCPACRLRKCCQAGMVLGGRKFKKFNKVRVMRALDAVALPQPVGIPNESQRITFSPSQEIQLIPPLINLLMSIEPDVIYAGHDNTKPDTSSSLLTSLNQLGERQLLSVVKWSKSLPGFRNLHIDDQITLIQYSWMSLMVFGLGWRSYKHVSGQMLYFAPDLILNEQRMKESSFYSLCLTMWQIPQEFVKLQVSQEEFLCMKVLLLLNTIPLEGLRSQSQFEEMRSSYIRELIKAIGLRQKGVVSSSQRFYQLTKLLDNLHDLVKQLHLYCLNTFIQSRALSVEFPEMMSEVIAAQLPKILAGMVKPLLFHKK

Sequence of Estrogen receptor (Mus musculus) (O08537 whole entry, looked up): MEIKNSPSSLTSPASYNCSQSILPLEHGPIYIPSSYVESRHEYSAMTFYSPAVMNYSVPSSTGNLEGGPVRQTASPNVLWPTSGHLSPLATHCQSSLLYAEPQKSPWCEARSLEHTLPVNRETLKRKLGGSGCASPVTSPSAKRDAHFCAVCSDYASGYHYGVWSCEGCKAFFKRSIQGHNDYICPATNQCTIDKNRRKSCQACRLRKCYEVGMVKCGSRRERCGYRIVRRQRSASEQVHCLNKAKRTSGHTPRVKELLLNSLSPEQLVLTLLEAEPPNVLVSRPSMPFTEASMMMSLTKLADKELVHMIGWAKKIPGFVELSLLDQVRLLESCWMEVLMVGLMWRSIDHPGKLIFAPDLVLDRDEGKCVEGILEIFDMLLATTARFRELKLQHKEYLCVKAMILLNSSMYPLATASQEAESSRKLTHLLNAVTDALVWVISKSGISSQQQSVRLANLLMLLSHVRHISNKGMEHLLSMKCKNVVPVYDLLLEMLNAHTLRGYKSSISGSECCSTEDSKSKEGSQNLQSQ
Sequence of Estrogen receptor (Mus musculus) (P19785 whole entry, looked up): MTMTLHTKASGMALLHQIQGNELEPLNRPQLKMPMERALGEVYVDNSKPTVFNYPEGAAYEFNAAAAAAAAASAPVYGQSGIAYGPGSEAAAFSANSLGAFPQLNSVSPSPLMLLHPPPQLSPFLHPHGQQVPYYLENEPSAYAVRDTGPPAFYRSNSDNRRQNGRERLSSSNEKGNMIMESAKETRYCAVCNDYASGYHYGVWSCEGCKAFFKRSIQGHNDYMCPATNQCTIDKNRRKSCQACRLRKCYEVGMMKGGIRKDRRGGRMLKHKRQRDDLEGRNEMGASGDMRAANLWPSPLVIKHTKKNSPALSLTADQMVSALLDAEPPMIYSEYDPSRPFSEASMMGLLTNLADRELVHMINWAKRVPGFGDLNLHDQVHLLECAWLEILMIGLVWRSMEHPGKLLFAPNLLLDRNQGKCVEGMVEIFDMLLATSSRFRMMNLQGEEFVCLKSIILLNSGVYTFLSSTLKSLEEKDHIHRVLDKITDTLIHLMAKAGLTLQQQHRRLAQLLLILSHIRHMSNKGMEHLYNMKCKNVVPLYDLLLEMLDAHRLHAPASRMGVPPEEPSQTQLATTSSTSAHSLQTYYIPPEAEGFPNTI

Structure (SMILES)	relative binding affinity (RBA) [1]	relative binding affinity (RBA) [2]
C[C@]12CC[C@H]3[C@@H](CCC4=CC(=O)CC[C@@]43C)[C@@H]1CC[C@@H]2C(=O)C[Se]c1ccccc1	< 0.1	59
CC(=O)[C@H]1CC[C@H]2[C@@H]3CCC4=CC(=O)CC[C@]4(C)[C@H]3CC[C@]12C	< 0.1	100
CC(=O)[C@@]1([Se]c2ccccc2)CC[C@H]2[C@@H]3CCC4=CC(=O)CC[C@]4(C)[C@H]3CC[C@@]21C	< 0.1	2.1
